Assay results reported in patent publication US7582428B2, “Methods and compositions for identifying anti-HCV agents” (priority 2003, dated 2009).

Assays:
GST-NS4B = biological target: T1, GST-NS4B (Hepatitis C virus genotype 1b, UniProt Q9WMX2); assay: RNA binding assay; parameters: species or system HCV; details: 5 mM nucleotide; compared with GTP-γ-S
T1 construct: wild type NS4B and the four NBM mutants were fused in frame with N-terminal Glutathione-S Transferase (GST) tags and assayed; made in house; host or cells: E. coli BL21 (pDEST15)
T1 sequence (Q9WMX2 1712-1972 limits assumed): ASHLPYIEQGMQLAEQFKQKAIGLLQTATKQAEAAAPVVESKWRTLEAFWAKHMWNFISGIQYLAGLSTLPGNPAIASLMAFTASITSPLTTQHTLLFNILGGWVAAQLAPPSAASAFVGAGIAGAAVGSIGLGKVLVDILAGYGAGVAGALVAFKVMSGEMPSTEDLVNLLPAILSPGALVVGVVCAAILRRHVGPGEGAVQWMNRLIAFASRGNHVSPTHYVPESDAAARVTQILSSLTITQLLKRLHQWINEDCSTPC
Method: RNA binding assay. 1 μg of purified protein was incubated for an hour at 37° C. in a 50 μl reaction mixture containing ^32P-labeled in vitro transcribed HCV RNA (prepared by using Sca I-linearized Bart79I plasmid (wild type HCV replicon (3)) as template, T7 RNA polymerase, and Riboprobe®/Promega, according to the manufacturer's protocol), binding buffer (10 mM DTT, 10 mM Na HEPES (pH 7.4), 33 mM NaCl, 0.1 mM EDTA, 10 mM MgCl2) and 5 mM of either GTP-γ-S or GDP (Sigma). 50 μl of tRNA pre-coated glutathione-agarose beads (Sigma) were then added, followed by 1 hour incubation at 4° C. to allow binding of GST to the beads. Samples were then washed three times in the binding buffer (in the absence of nucleotides). Aliquots were finally subjected to liquid scintillation counting for measuring bound RNA. Control incubations performed with reaction mixture prepared as above but with omission of T7 RNA polymerase were run in parallel and used for background subtraction.

NS4B-GFP = NS4B-GFP (Hepatitis C virus genotype 1b, UniProt Q9WMX2); assay type: binding, HCV

Structure (SMILES)	labeling of NS4B-GFP by 32P-labeled photoactivatable nucleotide (NS4B-GFP)	further results
Nc1nc2c(ncn2[C@@H]2O[C@H](COP(=O)(O)OP(=O)(O)O)[C@@H](O)[C@H]2O)c(=O)[nH]1 [GDP]	–	HCV RNA binding of GST-NS4B in the presence of guanyl nucleotide (GST-NS4B): dramatically increased
Nc1nc2c(ncn2[C@@H]2O[C@H](COP(=O)(O)OP(=O)(O)OP(O)(O)=S)[C@@H](O)[C@H]2O)c(=O)[nH]1 [GTPγS]	–	binding of labeled GTP in the presence of cold competitor nucleotide (NS4B-GFP): progressively decreased
[N-]=[N+]=Nc1ccc(NP(=O)(O)OP(=O)(O)OP(=O)(O)OC[C@H]2O[C@@H](n3cnc4c(=O)[nH]c(N)nc43)[C@H](O)[C@@H]2O)cc1 [GTP, GTP-γ-4-azidoanilide]	specifically labeled	–
[N-]=[N+]=Nc1ccc(NP(=O)(O)OP(=O)(O)OP(=O)(O)OC[C@H]2O[C@@H](n3cnc4c(N)ncnc43)[C@H](O)[C@@H]2O)cc1 [ATP, ATP-γ4-azidoanilide]	significantly less efficient than GTP binding	–
